Data taken from patent US6180677A, “Tyrosine-derived compounds as calcium channel antagonists” (Warner-Lambert Company, priority 1999, dated 2001).
Where a name gives a salt, the structure may show the parent alone.

How the values were obtained:
[1] = target: T1, N-type Ca^2+ channel (Homo sapiens, UniProt Q00975); assay: N-type Ca2+ channel blocking potency in IMR-32 cells using the fluorescent Ca2+ indicator Indo-1; assay type: cell-based; conditions: for IC50: K+-stimulated Ca2+ flux, 5 μM nitrendipine to block L-type channels, read-out: IMR32 IC50; for IMR32 % @ 1: at 1 μM; for IMR32 % @ 1 / IMR32 % @ 10: 5 μM nitrendipine; for IMR32 % @ 10: at 10 μM
T1 construct: host or cells: IMR-32 human neuroblastoma cells, differentiated with dibutyryl cAMP and bromodeoxyuridine
T1 sequence (Q00975 whole entry): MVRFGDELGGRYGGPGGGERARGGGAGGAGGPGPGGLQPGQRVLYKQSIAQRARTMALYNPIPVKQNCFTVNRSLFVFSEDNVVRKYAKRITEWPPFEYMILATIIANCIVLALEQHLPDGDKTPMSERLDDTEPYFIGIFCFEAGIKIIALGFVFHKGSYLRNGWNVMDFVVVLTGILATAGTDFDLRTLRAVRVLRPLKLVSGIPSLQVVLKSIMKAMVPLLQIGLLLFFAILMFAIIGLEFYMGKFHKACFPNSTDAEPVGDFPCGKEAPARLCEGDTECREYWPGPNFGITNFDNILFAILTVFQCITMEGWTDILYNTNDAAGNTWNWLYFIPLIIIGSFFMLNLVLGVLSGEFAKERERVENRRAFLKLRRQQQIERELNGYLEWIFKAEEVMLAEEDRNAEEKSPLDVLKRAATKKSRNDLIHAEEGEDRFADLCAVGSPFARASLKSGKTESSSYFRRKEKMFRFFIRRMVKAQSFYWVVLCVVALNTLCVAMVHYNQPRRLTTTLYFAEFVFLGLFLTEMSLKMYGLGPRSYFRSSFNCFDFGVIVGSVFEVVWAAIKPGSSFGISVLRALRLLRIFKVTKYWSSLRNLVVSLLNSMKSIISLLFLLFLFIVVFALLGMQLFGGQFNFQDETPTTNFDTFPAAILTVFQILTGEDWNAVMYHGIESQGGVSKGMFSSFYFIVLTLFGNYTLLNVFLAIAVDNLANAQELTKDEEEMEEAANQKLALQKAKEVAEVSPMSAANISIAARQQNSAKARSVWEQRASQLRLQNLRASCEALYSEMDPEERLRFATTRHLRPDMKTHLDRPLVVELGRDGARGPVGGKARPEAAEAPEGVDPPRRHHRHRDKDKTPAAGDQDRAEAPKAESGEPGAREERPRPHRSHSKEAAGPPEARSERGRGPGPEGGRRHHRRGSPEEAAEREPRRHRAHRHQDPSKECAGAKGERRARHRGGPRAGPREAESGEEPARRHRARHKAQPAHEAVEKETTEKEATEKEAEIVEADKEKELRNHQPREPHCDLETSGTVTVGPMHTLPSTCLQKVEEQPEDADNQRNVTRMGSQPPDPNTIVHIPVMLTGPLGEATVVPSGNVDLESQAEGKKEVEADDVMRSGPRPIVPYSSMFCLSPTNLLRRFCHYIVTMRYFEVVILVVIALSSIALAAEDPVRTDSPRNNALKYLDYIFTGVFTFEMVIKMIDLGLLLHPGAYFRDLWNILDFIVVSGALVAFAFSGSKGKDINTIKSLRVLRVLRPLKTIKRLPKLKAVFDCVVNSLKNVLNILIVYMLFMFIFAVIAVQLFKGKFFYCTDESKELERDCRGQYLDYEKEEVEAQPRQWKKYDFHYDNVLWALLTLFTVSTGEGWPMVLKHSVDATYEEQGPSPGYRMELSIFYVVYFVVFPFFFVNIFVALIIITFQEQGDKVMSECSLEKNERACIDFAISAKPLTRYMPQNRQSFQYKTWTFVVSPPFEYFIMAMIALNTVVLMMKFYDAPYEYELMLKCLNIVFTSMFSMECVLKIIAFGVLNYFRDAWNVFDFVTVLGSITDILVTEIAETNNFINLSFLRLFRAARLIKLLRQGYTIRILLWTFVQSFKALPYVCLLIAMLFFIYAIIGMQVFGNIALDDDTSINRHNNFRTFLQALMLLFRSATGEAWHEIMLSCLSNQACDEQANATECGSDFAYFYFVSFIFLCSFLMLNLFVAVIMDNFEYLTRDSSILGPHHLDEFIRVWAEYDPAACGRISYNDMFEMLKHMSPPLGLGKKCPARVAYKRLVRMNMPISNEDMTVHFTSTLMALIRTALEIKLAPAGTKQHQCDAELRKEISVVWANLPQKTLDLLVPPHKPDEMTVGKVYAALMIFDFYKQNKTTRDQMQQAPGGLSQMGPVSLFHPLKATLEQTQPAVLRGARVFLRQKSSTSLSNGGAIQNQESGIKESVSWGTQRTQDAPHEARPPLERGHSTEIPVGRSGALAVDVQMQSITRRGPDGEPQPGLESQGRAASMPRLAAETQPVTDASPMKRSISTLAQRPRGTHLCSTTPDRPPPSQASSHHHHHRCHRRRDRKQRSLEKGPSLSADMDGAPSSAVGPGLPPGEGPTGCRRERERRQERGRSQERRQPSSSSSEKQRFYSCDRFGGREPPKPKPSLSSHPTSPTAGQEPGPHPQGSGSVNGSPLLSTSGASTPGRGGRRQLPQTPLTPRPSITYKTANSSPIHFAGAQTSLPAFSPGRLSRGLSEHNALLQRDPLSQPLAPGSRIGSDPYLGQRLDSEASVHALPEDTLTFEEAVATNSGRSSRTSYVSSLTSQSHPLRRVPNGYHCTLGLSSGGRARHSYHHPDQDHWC
T1 sequence (P54289 25-956 partner limits assumed): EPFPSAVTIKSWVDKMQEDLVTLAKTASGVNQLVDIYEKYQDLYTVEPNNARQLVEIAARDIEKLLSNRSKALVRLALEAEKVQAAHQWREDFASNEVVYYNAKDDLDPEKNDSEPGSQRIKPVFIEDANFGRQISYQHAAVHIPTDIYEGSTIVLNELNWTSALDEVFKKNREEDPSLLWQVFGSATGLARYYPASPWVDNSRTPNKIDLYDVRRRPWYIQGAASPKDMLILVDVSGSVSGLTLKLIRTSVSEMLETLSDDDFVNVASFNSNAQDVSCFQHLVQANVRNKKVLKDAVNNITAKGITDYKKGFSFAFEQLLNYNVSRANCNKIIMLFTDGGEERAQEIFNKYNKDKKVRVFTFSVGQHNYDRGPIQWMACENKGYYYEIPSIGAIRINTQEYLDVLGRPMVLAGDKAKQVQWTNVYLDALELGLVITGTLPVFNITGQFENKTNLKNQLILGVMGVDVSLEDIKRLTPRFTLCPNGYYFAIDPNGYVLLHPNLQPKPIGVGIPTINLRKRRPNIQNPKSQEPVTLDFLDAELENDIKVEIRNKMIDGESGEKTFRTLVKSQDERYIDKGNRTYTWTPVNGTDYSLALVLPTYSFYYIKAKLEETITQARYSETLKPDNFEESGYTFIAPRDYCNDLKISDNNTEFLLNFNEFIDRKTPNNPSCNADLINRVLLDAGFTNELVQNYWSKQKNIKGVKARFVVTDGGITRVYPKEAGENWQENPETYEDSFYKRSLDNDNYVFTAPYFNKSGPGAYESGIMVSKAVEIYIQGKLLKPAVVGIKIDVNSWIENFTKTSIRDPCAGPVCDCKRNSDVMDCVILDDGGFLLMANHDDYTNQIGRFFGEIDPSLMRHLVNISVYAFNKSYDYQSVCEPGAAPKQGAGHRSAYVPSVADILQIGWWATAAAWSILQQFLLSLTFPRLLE
T1 sequence (P54289 957-1103 partner limits assumed): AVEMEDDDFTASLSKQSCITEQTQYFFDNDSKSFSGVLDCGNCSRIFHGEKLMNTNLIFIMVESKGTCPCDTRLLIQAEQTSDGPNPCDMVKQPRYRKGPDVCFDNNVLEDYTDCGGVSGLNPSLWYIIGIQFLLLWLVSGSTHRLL
T1 sequence (P54284 whole entry partner): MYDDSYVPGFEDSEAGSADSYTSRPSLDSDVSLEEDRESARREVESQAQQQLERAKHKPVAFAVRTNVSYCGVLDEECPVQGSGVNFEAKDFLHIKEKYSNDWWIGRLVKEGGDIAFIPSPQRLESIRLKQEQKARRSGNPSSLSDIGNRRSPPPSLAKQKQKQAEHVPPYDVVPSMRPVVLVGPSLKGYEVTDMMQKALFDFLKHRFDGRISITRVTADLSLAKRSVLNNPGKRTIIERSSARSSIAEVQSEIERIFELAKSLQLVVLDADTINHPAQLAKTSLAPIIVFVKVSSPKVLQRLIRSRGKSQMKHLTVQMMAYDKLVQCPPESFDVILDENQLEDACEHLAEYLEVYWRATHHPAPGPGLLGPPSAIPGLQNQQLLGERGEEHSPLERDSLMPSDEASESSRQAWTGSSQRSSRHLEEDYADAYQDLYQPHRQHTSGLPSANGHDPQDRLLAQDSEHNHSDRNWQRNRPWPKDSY
Description: Measurement of N-type Ca^2+ Channel Blocking Potencies of Compounds in IMR-32 Cells Using the Fluorescent Ca^2+ Indicator Indo-1
IMR-32 cells are a human tumoral cell line of neural origin. […] Calcium flux into these cells may be induced by stimulation with elevated potassium concentrations. The L-channel component of calcium flux may be blocked by adding 5 μM nitrendipine. The remaining component of calcium entry into the IMR-32 cells is due to calcium flux through N-type calcium channels. Intracellular calcium concentrations are measured using the fluorescent calcium indicator Indo-1. The effect of drug concentration on calcium uptake is studied.
The IMR-32 cell line was obtained from the American Type Culture Collection (Rockville, Md.). Cells were grown in Eagle's Minimum Essential Medium with Earle's salts supplemented with 10% fetal bovine serum, 2 mM L-Gln and antibiotic/antimicotic mixture (Gibco). At approximately 80% confluency, differentiation was induced by the addition of 1 mM dibutyryl cAMP and 2.5 μM bromodeoxyuridine to the medium. After 7 to 13 days of differentiation, cells were detached using 0.5 mM EDTA and loaded with 5 μM Indo-1 acetoxymethyl ester (Molecular Probes, Eugene, Oreg.) at […] for 45 minutes. Loaded cells were washed twice, resuspended (~10^7 cells/mL) in assay buffer (10 mM HEPES/Tris pH 7.4 in Hank's Balanced Salt Solution without bicarbonate or phenol red containing 0.5% bovine serum albumin) and kept on ice until use. Fluorescence measurements were carried out in a Photon Technology International (PTI, South Brunswick, N.J.) Model RF-F3004 spectrofluorometer with dual emission monochromators using excitation at 350 nm and emission at 400 and 490 nm. The instrument was equipped with a thermostated cuvette holder with stirring capabilities, as well as with a computer-controlled pump that allowed for reagent addition during measurement. Instrument control and data collection was done by PTI's OSCAR software running on an IBM compatible computer. Different concentrations of the test compounds (60 μL in dimethyl sulfoxide) were added to 5.94 mL of assay buffer containing approximately 3×10^6 loaded cells, and 5 μM Nitrendipine (in 30 μL EtOH) to block L-type Ca^2+ channels. Samples were incubated for 10 minutes at 30° C. and then aliquoted into three 10×10 mm disposable acrylic cuvettes. Emission signals at 400 and 490 nm were acquired from each cuvette at 30° C. for 50 seconds. At 20 seconds after the start of reading, cells were depolarized by the addition of 160 μL of stimulation solution (1 M KCl, 68 mM CaCl2) to the cuvette via the computer-controlled pump. Ratio of dual emission signals (400 nm/490 nm), which is proportional to intracellular Ca^2+ concentration, was plotted against time, and the difference between maximal response after stimulation and basal value (before stimulation) was determined. Values obtained in this way were plotted as a function of drug concentration. IC50 values of test compounds were calculated by fitting a four-parameter logistic function to the data using the least squared method.

[2] = tested on: DBA/2 mice; assay: Audiogenic seizure model in DBA/2 mice; assay type: in vivo; conditions: protected/tested
Description: Audiogenic Seizure Model in DBA/2 Mice
In Vivo Biological Protocol
A compound of the present invention was dissolved in water using 10% (weight/volume) Emulphor (GAF Corp., Wayne, N.J.) surfactant. Substances were administered by intravenous injection into the retro-orbital venous sinus. All testing was performed 15 minutes or 45 minutes after drug injection. All the male mice, 3 to 4 weeks old, were obtained from Jackson Laboratories, Bar Harbour, Me. Immediately before anticonvulsant testing, mice were placed upon a wire mesh, 4 inches square suspended from a steel rod. […] Any mouse falling from the wire mesh was scored as ataxic.
Mice were placed into an enclosed acrylic plastic chamber (21 cm height, approximately 30 cm diameter) with a high-frequency speaker (4 cm diameter) in the center of the top lid. An audio signal generator (Protek model B-810) was used to produce a continuous sinusoidal tone that was swept linearly in frequency between 8 kHz and 16 kHz once each 10 msec. The average sound pressure level (SPL) during stimulation was approximately 100 dB at the floor of the chamber. Mice were placed within the chamber and allowed to acclimatize for 1 minute. DBA/2 mice in the vehicle-treated group responded to the sound stimulus (applied until tonic extension occurred, or for a maximum of 60 seconds) with a characteristic seizure sequence consisting of wild running followed by clonic seizures, and later by tonic extension, and finally by respiratory arrest and death in 80% or more of the mice. In vehicle-treated mice, the entire sequence of seizures to respiratory arrest lasts approximately 15 to 20 seconds.
The incidence of all the seizure phases in the drug-treated and vehicle-treated mice was recorded, and the occurrence of tonic seizures were used for calculating anticonvulsant ED50 values by probit analysis. Mice were used only once for testing at each time and dose point.

[3] = 30 mg/kg IV, 15 minutes post treatment
[4] = 30 mg/kg IV, 45 minutes post treatment
[5] = 10 mg/kg IV, 15 minutes post treatment

CC(C)(C)NC(=O)[C@H](Cc1ccc(OCc2ccccc2)cc1)NC(=O)C1(c2ccccc2)CCCC1 [Example 1, (S)-1-Phenyl-cyclopentanecarboxylic acid [2-(4-benzyloxy-phenyl)-1-tert-butylcarbamoyl-ethyl]-amide]
IC50 [1]: 1200 nM

CC(C)CCN(CCC(C)C)[C@@H](Cc1ccc(OCc2ccccc2)cc1)C(=O)NC(C)(C)C.Cl [Example 3, (S)-3-(4-Benzyloxy-phenyl)-2-[bis-(3-methyl-butyl)-amino]-N-tert-butyl-propionamide monohydrochloride]
IC50 [1]: 760 nM | Number of Mice Protected from Tonic Convulsions [2, 3]: 4/5

CC(C)CCC(CCC(C)C)N[C@@H](Cc1ccc(OCc2ccccc2)cc1)C(=O)NC(C)(C)C.Cl [Example 4, (S)-3-(4-Benzyloxy-phenyl)-N-tert-butyl-2-[4-methyl-1-(3-methyl-butyl)-pentylamino]-propionamide monohydrochloride]
IMR32 % @ 1 [1]: 45% | IMR32 % @ 10 [1]: 102%

CC(C)CCN(CC1CCCCC1)[C@@H](Cc1ccc(OCc2ccccc2)cc1)C(=O)NC(C)(C)C.Cl [Example 5, (S)-3-(4-Benzyloxy-phenyl)-N-tert-butyl-2-[cyclohexyl-methyl-(3-methyl-butyl)-amino]-propionamide monohydrochloride]
IMR32 % @ 1 [1]: 27% | IMR32 % @ 10 [1]: 61%

CC(C)CCN(CCC(C)(C)C)[C@@H](Cc1ccc(OCc2ccccc2)cc1)C(=O)NC(C)(C)C.Cl [Example 6, (S)-3-(4-Benzyloxy-phenyl)-N-tert-butyl-2-[(3,3-dimethyl-butyl)-(3-methyl-butyl)-amino]-propionamide monohydrochloride]
IC50 [1]: 440 nM | Number of Mice Protected from Tonic Convulsions [2, 3]: 2/5 | Number of Mice Protected from Tonic Convulsions [2, 4]: 4/5

CC(C)(C)CCN[C@@H](Cc1ccc(OCc2ccccc2)cc1)C(=O)NC(C)(C)C [Example 7, (S)-3-(4-Benzyloxy-phenyl)-N-tert-butyl-2-(3,3-dimethyl-butylamino)-propionamide monohydrochloride]
IC50 [1]: 1400 nM

CC(C)(C)CCN(CCC(C)(C)C)[C@@H](Cc1ccc(OCc2ccccc2)cc1)C(=O)NC(C)(C)C [Example 8, (S)-3-(4-Benyloxy-phenyl)-2-[bis-(3,3-dimethyl-butyl)-amino]-N-tert-butyl-propionamide monohydrochloride]
IC50 [1]: 790 nM

CC(C)(C)NC(=O)[C@H](Cc1ccc(OCc2ccccc2)cc1)NCc1ccc(C(C)(C)C)cc1 [Example 9, (S)-3-(4-Benzyloxy-phenyl)-N-tert-butyl-2-(4-tert-butyl-benzylamino)-propionamide monohydrochloride]
IC50 [1]: 2000 nM

CC(C)(C)c1ccc(CN(Cc2ccc(C(C)(C)C)cc2)[C@@H](Cc2ccc(OCc3ccccc3)cc2)C(=O)NCCN2CCCCC2)cc1 [Example 10, (S)-3-(4Benzyloxy-phenyl)-2-[bis-(4-tert-butyl-benzyl)-amino]-N-(2-piperidin-1-yl-ethyl)-propionamide]
IC50 [1]: 680 nM

CC(C)(C)c1ccc(CN(Cc2ccc(C(C)(C)C)cc2)C(CNCCN2CCCCC2)Cc2ccc(OCc3ccccc3)cc2)cc1 (centres unmarked) [Example 11, 3-(4-Benzyloxy-phenyl)-N^2, N^2-bis-(4-tert-butyl-benzyl)-N^1-(2-piperidin-1-yl-ethyl)-propane-1,2-diamine]
IC50 [1]: 170 nM

CC(C)(C)c1ccc(CNC(CNCCN2CCCCC2)Cc2ccc(OCc3ccccc3)cc2)cc1 (centres unmarked) [Example 12, 3-(4-Benzyloxy-phenyl)-N^2-(4-tert-butyl-benzyl)-N^1-(2-piperidin-1-yl-ethyl)-propane-1,2-diamine]
IC50 [1]: 280 nM | Number of Mice Protected from Tonic Convulsions [2, 5]: 0/5

CC(C)(C)c1ccc(CN[C@@H](Cc2ccc(OCc3ccccc3)cc2)C(=O)NCCN2CCCCC2)cc1 [Example 13, (S)-3-(4-Benzyloxy-phenyl)-2-(4-tert-butyl-benzylamino)-N-(2-piperidin-1-yl-ethyl)-propionamide]
IC50 [1]: 700 nM | Number of Mice Protected from Tonic Convulsions [2, 5]: 0/5 | Number of Mice Protected from Tonic Convulsions ([2]; 10 mg/kg IV, 45 minutes post treatment): 1/5 | Number of Mice Protected from Tonic Convulsions [2, 3]: 4/5 | Number of Mice Protected from Tonic Convulsions [2, 4]: 4/5

CC(C)(C)NCC(Cc1ccc(OCc2ccccc2)cc1)NCc1ccc(C(C)(C)C)cc1 (centres unmarked) [Example 14, 3-(4-Benzyloxy-phenyl)-N^1-tert-butyl-N^2-(4-tert-butyl-benzyl)-propane-1,2-diamine]
IC50 [1]: 450 nM | Number of Mice Protected from Tonic Convulsions [2, 3]: 5/5 | Number of Mice Protected from Tonic Convulsions [2, 4]: 4/5

(S)-3-(4-Benzyloxy-phenyl)-N-tert-butyl-2-(3-methyl-butylamino)-propionamide monohydrochloride [Example 2]
IC50 [1]: 2000 nM
